Results: PubChem BioAssay (NCI)
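GI50 = concentration required for 50% inhibition of growth. TGI is the concentration that stops growth completely.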

Assays:
Assay in all cases: NCI-60 cell line screen, 384-well format
TK-10 renal = tested on: TK-10 renal
ACHN renal = tested on: ACHN renal
MDA-MB-468 breast = tested on: MDA-MB-468 breast
PC-3 prostate = tested on: PC-3 prostate
MDA-MB-435 melanoma = tested on: MDA-MB-435 melanoma
UACC-257 melanoma = tested on: UACC-257 melanoma
OVCAR-5 ovarian = tested on: OVCAR-5 ovarian
SNB-19 CNS = tested on: SNB-19 CNS
SK-MEL-28 melanoma = tested on: SK-MEL-28 melanoma
MOLT-4 leukemia = tested on: MOLT-4 leukemia
CCRF-CEM leukemia = tested on: CCRF-CEM leukemia
RXF 393 renal = tested on: RXF 393 renal
HCC-2998 colon = tested on: HCC-2998 colon
HOP-62 NSCLC = tested on: HOP-62 NSCLC
MDA-MB-231 breast = tested on: MDA-MB-231 breast
A549 NSCLC = tested on: A549 NSCLC
OVCAR-3 ovarian = tested on: OVCAR-3 ovarian
HS 578T breast = tested on: HS 578T breast
OVCAR-4 ovarian = tested on: OVCAR-4 ovarian
KM12 colon = tested on: KM12 colon
NCI-H460 NSCLC = tested on: NCI-H460 NSCLC
HOP-92 NSCLC = tested on: HOP-92 NSCLC
HL-60(TB) leukemia = tested on: HL-60(TB) leukemia
SK-MEL-5 melanoma = tested on: SK-MEL-5 melanoma
MCF7 breast = tested on: MCF7 breast
DU-145 prostate = tested on: DU-145 prostate
IGROV1 ovarian = tested on: IGROV1 ovarian
K-562 leukemia = tested on: K-562 leukemia
NCI-H322M lung = tested on: NCI-H322M lung
BT-549 breast = tested on: BT-549 breast
UO-31 renal = tested on: UO-31 renal
SF-539 CNS = tested on: SF-539 CNS
SN12C renal = tested on: SN12C renal
SNB-75 CNS = tested on: SNB-75 CNS
SF-295 CNS = tested on: SF-295 CNS
RPMI-8226 leukemia = tested on: RPMI-8226 leukemia
CAKI-1 renal = tested on: CAKI-1 renal
HT29 colon = tested on: HT29 colon
NCI-H23 lung = tested on: NCI-H23 lung
M14 melanoma = tested on: M14 melanoma
A498 renal = tested on: A498 renal
NCI-H226 lung = tested on: NCI-H226 lung
SK-OV-3 ovarian = tested on: SK-OV-3 ovarian
786-0 renal = tested on: 786-0 renal
HCT-116 colon = tested on: HCT-116 colon
EKVX NSCLC = tested on: EKVX NSCLC
SF-268 CNS = tested on: SF-268 CNS
HCT-15 colon = tested on: HCT-15 colon
COLO 205 colon = tested on: COLO 205 colon
LOX IMVI melanoma = tested on: LOX IMVI melanoma
UACC-62 melanoma = tested on: UACC-62 melanoma
NCI/ADR-RES ovarian = tested on: NCI/ADR-RES ovarian
NCI-H522 lung = tested on: NCI-H522 lung
T-47D breast = tested on: T-47D breast
SW-620 colon = tested on: SW-620 colon
MALME-3M melanoma = tested on: MALME-3M melanoma
U251 glioblastoma = tested on: U251 glioblastoma
OVCAR-8 ovarian = tested on: OVCAR-8 ovarian

In the case of CC[C@H](C)n1cc(C)c2c(C(=O)NCc3c(C)cc(C)[nH]c3=O)cc(-c3ccc(N4CCNCC4)nc3)cc21, the GI50 (TK-10 renal) is reported as 1910 nM, the TGI (TK-10 renal) is reported as 3640 nM and the GI50 (ACHN renal) is reported as 4230 nM. It also gave a TGI (ACHN renal) of 15600 nM, a GI50 (MDA-MB-468 breast) of 1460 nM and a TGI (MDA-MB-468 breast) of 2790 nM. It also gave a GI50 (PC-3 prostate) of 3230 nM, a TGI (PC-3 prostate) of 8540 nM and a GI50 (MDA-MB-435 melanoma) of 2070 nM. The TGI (MDA-MB-435 melanoma) was 3520 nM, the GI50 (UACC-257 melanoma) was 1630 nM and the TGI (UACC-257 melanoma) was 2990 nM. The GI50 (OVCAR-5 ovarian) was 2620 nM, the TGI (OVCAR-5 ovarian) was 6440 nM and the GI50 (SNB-19 CNS) was 2110 nM. It also gave a TGI (SNB-19 CNS) of 3750 nM, a GI50 (SK-MEL-28 melanoma) of 2150 nM and a TGI (SK-MEL-28 melanoma) of 3600 nM. For the same molecule, the GI50 (MOLT-4 leukemia) was 1630 nM, the TGI (MOLT-4 leukemia) was 2990 nM and the GI50 (CCRF-CEM leukemia) was 1530 nM. The TGI (CCRF-CEM leukemia) was 2870 nM, the GI50 (RXF 393 renal) was 1730 nM and the TGI (RXF 393 renal) was 3140 nM. The GI50 (HCC-2998 colon) was 1600 nM, the TGI (HCC-2998 colon) was 2980 nM and the GI50 (HOP-62 NSCLC) was 1640 nM. For the same molecule, the TGI (HOP-62 NSCLC) was 3020 nM, the GI50 (MDA-MB-231 breast) was 1650 nM and the TGI (MDA-MB-231 breast) was 3060 nM. It also gave a GI50 (A549 NSCLC) of 1960 nM, a TGI (A549 NSCLC) of 3920 nM and a GI50 (OVCAR-3 ovarian) of 2250 nM. The TGI (OVCAR-3 ovarian) was 4390 nM, the GI50 (HS 578T breast) was 1410 nM and the TGI (HS 578T breast) was 2710 nM. For the same molecule, the GI50 (OVCAR-4 ovarian) was 3580 nM, the TGI (OVCAR-4 ovarian) was 10800 nM and the GI50 (KM12 colon) was 1790 nM. It also gave a TGI (KM12 colon) of 3320 nM, a GI50 (NCI-H460 NSCLC) of 1830 nM and a TGI (NCI-H460 NSCLC) of 3240 nM. For the same molecule, the GI50 (HOP-92 NSCLC) was 1830 nM, the TGI (HOP-92 NSCLC) was 3250 nM and the GI50 (HL-60(TB) leukemia) was 2030 nM. The TGI (HL-60(TB) leukemia) was 3470 nM, the GI50 (SK-MEL-5 melanoma) was 1630 nM and the TGI (SK-MEL-5 melanoma) was 2990 nM. It also gave a GI50 (MCF7 breast) of 1520 nM, a TGI (MCF7 breast) of 2890 nM and a GI50 (DU-145 prostate) of 3830 nM. The TGI (DU-145 prostate) was 12100 nM, the GI50 (IGROV1 ovarian) was 1540 nM and the TGI (IGROV1 ovarian) was 3670 nM. The GI50 (K-562 leukemia) was 1480 nM, the TGI (K-562 leukemia) was 2810 nM and the GI50 (NCI-H322M lung) was 1960 nM. The TGI (NCI-H322M lung) was 4070 nM, the GI50 (BT-549 breast) was 1670 nM and the TGI (BT-549 breast) was 3050 nM. For the same molecule, the GI50 (UO-31 renal) was 13100 nM, the TGI (UO-31 renal) was 25800 nM and the GI50 (SF-539 CNS) was 1600 nM. For the same molecule, the TGI (SF-539 CNS) was 2960 nM, the GI50 (SN12C renal) was 1780 nM and the TGI (SN12C renal) was 3490 nM. For the same molecule, the GI50 (SNB-75 CNS) was 1350 nM, the TGI (SNB-75 CNS) was 2650 nM and the GI50 (SF-295 CNS) was 1870 nM. For the same molecule, the TGI (SF-295 CNS) was 3320 nM, the GI50 (RPMI-8226 leukemia) was 1390 nM and the TGI (RPMI-8226 leukemia) was 2700 nM. The GI50 (CAKI-1 renal) was 1760 nM, the TGI (CAKI-1 renal) was 3170 nM and the GI50 (HT29 colon) was 1680 nM. For the same molecule, the TGI (HT29 colon) was 3110 nM, the GI50 (NCI-H23 lung) was 2890 nM and the TGI (NCI-H23 lung) was 7440 nM. For the same molecule, the GI50 (M14 melanoma) was 1750 nM, the TGI (M14 melanoma) was 3140 nM and the GI50 (A498 renal) was 1940 nM. The TGI (A498 renal) was 3430 nM, the GI50 (NCI-H226 lung) was 3760 nM and the TGI (NCI-H226 lung) was 14500 nM. For the same molecule, the GI50 (SK-OV-3 ovarian) was 1860 nM, the TGI (SK-OV-3 ovarian) was 3300 nM and the GI50 ([…]-0 renal) was 1710 nM. The TGI (786-0 renal) was 3100 nM, the GI50 (HCT-116 colon) was 1790 nM and the TGI (HCT-116 colon) was 3230 nM. The GI50 (EKVX NSCLC) was 1830 nM, the TGI (EKVX NSCLC) was 3490 nM and the GI50 (SF-268 CNS) was 1620 nM. For the same molecule, the TGI (SF-268 CNS) was 2980 nM, the GI50 (HCT-15 colon) was 1860 nM and the TGI (HCT-15 colon) was 3480 nM. It also gave a GI50 (COLO 205 colon) of 1710 nM, a TGI (COLO 205 colon) of 3100 nM and a GI50 (LOX IMVI melanoma) of 1640 nM. For the same molecule, the TGI (LOX IMVI melanoma) was 3020 nM, the GI50 (UACC-62 melanoma) was 1570 nM and the TGI (UACC-62 melanoma) was 2920 nM. It also gave a GI50 (NCI/ADR-RES ovarian) of 17700 nM, a TGI (NCI/ADR-RES ovarian) of 31600 nM and a GI50 (NCI-H522 lung) of 1860 nM. It also gave a TGI (NCI-H522 lung) of 3270 nM, a GI50 (T-47D breast) of 1470 nM and a TGI (T-47D breast) of 2820 nM. The GI50 (SW-620 colon) was 1740 nM, the TGI (SW-620 colon) was 3120 nM and the GI50 (MALME-3M melanoma) was 1610 nM. It also gave a TGI (MALME-3M melanoma) of 2970 nM, a GI50 (U251 glioblastoma) of 1830 nM and a TGI (U251 glioblastoma) of 3250 nM. For the same molecule, the GI50 (OVCAR-8 ovarian) was 1810 nM and the TGI (OVCAR-8 ovarian) was 3340 nM.
